# Measured values published in patent US4672068A, “Antihypertensive 1,4-dihydropyridines having a conjugated ester” (Fujirebio Kabushiki Kaisha, priority 1984, dated 1987).
# Legend:
# [1] = in vivo; details: mouse, iv
# Method: Acute toxicity of several derivatives was tested with male ddy mice weighed 15-30 grams by the up and down method. Each derivative was dissolved in 1.5% PVP/ethanol solution, and diluted with a saline solution. Such derivative solution was injected into the caudal vein, and the acute toxicity was determined.
# [2] = test system: Male spontaneously hypertensive rats (SHR), arterial blood pressure; assay: Depressor response after intraduodenal administration (1 mg/kg), Table 2; format: in vivo, rat; details: for Half-life: '120<' means greater than 120
# Method: Arterial blood pressure was measured through the catherized artery with a pressure transducer (MPU-0.5, manufactured by Nihon Kohden Kabushiki Kaisha). The catheter was inserted into the abdominal aorta via the median coccygcal artery of SHR under light ether anesthesia. The recordings were made on a rectigraph (manufactured by Sanei Sokki Kabushiki Kaisha). The 1,4-dihydropyridine derivatives prepared in the foregoing examples were administered with catheter which was inserted previously into the caudal vein or duodenum at least two hours after the operation. SHR were restrained with wire mesh cage immediately after the operation.
# [3] = test system: Male spontaneously hypertensive rats (SHR), arterial blood pressure; assay: Depressor response after intravenous administration (30 μg/kg), Table 1; format: in vivo, rat; details: for Duration: '90<' means greater than 90
# Procedure, shortened: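 Conscious restrained SHR with mean arterial pressure above 140 mmHg; pressure recorded via abdominal aortic catheter and transducer. Dosing was at least 2 h after surgery, through a caudal vein catheter. Compound was given in 1.5% PVP/ethanol diluted with 0.9% saline.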
# [4] = test system: Male SHR, systolic blood pressure; assay: Systolic blood pressure by tail cuff method, oral administration (3 mg/kg), Table 4; format: in vivo, rat; details: conscious SHR; for Duration: '24<' means greater than 24
# Method: Systolic blood pressure was measured by the tail cuff method with electrophygmomanometer (PE-300, made by Narco Co.). Each derivative (3 mg/kg) was administered orally, suspended in 5% gum arabic solution.
# [5] = test system: rat (SHR), blood pressure and heart rate; assay: Depressor response of trans- and cis-forms, dose-response intravenous, Tables 5 and 6; format: in vivo; details: for ED40: Rattus norvegicus, intravenous, from regression line
# Method: Male spontaneously hypertensive rats (SHR) which had mean arterial blood pressures higher than 140 mmHg were used for the experiments. Arterial blood pressure was measured through the catherized artery with a pressure transducer (MPU-0.5, manufactured by Nihon Kohden Kabushiki Kaisha). The catheter was inserted into the abdominal aorta via the median coccygcal artery of SHR under light ether anesthesia. The recordings were made on a rectigraph (manufactured by Sanei Sokki Kabushiki Kaisha). The 1,4-dihydropyridine derivatives prepared in the foregoing examples were administered with catheter which was inserted previously into the caudal vein or duodenum at least two hours after the operation. SHR were restrained with wire mesh cage immediately after the operation. […]
# [6] = male ddy mice, caudal vein injection, '60<' means greater than 60
Structure (SMILES),"LD50 [1, 6] [mg/kg]",The time to reach the lowest BP [2] [min],ΔBP (Maximum depressor response) [2] [mmHg],Half-life [2] [min],The time to reach the lowest BP [3] [min],ΔBP (Maximum depressor response) [3] [mmHg],Duration [3] [min],ΔBP After 1 hour [4] [mmHg],ΔBP After 3 hours [4] [mmHg],Duration [4] [h],further results
"COC(=O)C1=C(C)NC(C)=C(C(=O)OCCC=Cc2ccc(C#N)cc2)C1c1cccc([N+](=O)[O-])c1 (stereo not shown) [Example 17, 4-(4-cyanophenyl)-3-butenyl methyl 4-(3-nitrophenyl)-2,6-dimethyl-1,4-dihydropyridine-3,5-dicarboxylate]",45,180,25,> 200,1.0,70,> 80,,,,
"COC(=O)C1=C(C)NC(C)=C(C(=O)OCCC=Cc2ccc(SC)cc2)C1c1cccc([N+](=O)[O-])c1 (stereo not shown) [Example 24, 4-(p-methylthiophenyl)-3-butenylmethyl 4-(3-nitrophenyl)-2,6-dimethyl-1,4-dihydropyridine-3,5-dicarboxylate]",50,160,27,> 160,2.1,60,120,,,,
"COC(=O)C1=C(C)NC(C)=C(C(=O)OC/C=C/c2ccccc2)C1c1cccc([N+](=O)[O-])c1 (stereo not drawn) [Example 1, cinnamyl methyl 4-(3-nitrophenyl)-2,6-dimethyl-1,4-dihydropyridine-3,5-dicarboxylate (trans)]",,43.7,35.0,> 120,1.7,44,> 90,-75,-80.5,7 to 24,Depressure Response MaxΔBP ([5]; 10 μg/kg i.v.): 35.0 mmHg; Depressure Response Peak ([5]; 10 μg/kg i.v.): 2.0 min; MaxΔHR (Heart rates) ([5]; 10 μg/kg i.v.): 28.3 beats/min; T 1/2 (Halflife) ([5]; 10 μg/kg i.v.): 32.6 min; Depressure Response MaxΔBP ([5]; 30 μg/kg i.v.): 52.2 mmHg; Depressure Response Peak ([5]; 30 μg/kg i.v.): 1.8 min; MaxΔHR (Heart rates) ([5]; 30 μg/kg i.v.): 65.3 beats/min; T 1/2 (Halflife) ([5]; 30 μg/kg i.v.): 26.7 min; Depressure Response MaxΔBP ([5]; 100 μg/kg i.v.): 69.0 mmHg; Depressure Response Peak ([5]; 100 μg/kg i.v.): 2.0 min; MaxΔHR (Heart rates) ([5]; 100 μg/kg i.v.): 32.5 beats/min; T 1/2 (Halflife) ([5]; 100 μg/kg i.v.): 48.5 min; ED40 [5]: 0.0156 mg/kg
"COC(=O)C1=C(C)NC(C)=C(C(=O)OC)C1c1ccccc1[N+](=O)[O-] [A, 4-(o-nitrophenyl)-2,6-dimethyl-1,4-dihydropyridine-3,5-dicarboxylic acid dimethyl ester, reference compound]",,6.0,48.3,,0.9,18.7,35.6 ± 6.5,-45,-22.0,< 7,
"CCOC(=O)C1=C(C)NC(C)=C(C(=O)OCC=Cc2ccccc2)C1c1cccc([N+](=O)[O-])c1 (stereo not shown) [Example 15, Cinnamyl ethyl 4-(3-nitrophenyl)-2,6-dimethyl-1,4-dihydropyridine-3,5-dicarboxylate]",,75,45,> 120,,,,,-35,7 to 24,
"COC(=O)C1=C(C)NC(C)=C(C(=O)OCC=CC=Cc2ccccc2)C1c1cccc([N+](=O)[O-])c1 (stereo not shown) [Example 16, 5-phenyl-2,4-pentadienyl methyl 4-(3-nitrophenyl)-2,6-dimethyl-1,4-dihydropyridine-3,5-dicarboxylate]",,50,45,> 120,,,,-55,-60,> 24,
"COC(=O)C1=C(C)NC(C)=C(C(=O)OCC/C=C/c2ccc3ccccc3c2)C1c1cccc([N+](=O)[O-])c1 (stereo not drawn) [12 (trans), 4-β-naphthyl-3-butenyl methyl 4-(3-nitrophenyl)-2,6-dimethyl-1,4-dihydropyridine-3,5-dicarboxylate]",,50,25,100,3.0,50,> 90,,,,Depressure Response MaxΔBP ([5]; 10 μg/kg i.v.): 21.7 mmHg; Depressure Response Peak ([5]; 10 μg/kg i.v.): 2.8 min; MaxΔHR (Heart rates) ([5]; 10 μg/kg i.v.): 43.3 beats/min; T 1/2 (Halflife) ([5]; 10 μg/kg i.v.): 11.3 min; Depressure Response MaxΔBP ([5]; 30 μg/kg i.v.): 54.8 mmHg; Depressure Response Peak ([5]; 30 μg/kg i.v.): 4.1 min; MaxΔHR (Heart rates) ([5]; 30 μg/kg i.v.): 90.0 beats/min; T 1/2 (Halflife) ([5]; 30 μg/kg i.v.): 16.0 min; Depressure Response MaxΔBP ([5]; 100 μg/kg i.v.): 72.5 mmHg; Depressure Response Peak ([5]; 100 μg/kg i.v.): 4.3 min; MaxΔHR (Heart rates) ([5]; 100 μg/kg i.v.): 80.0 beats/min; T 1/2 (Halflife) ([5]; 100 μg/kg i.v.): 37.5 min; ED40 [5]: 0.0199 mg/kg; LD50 [1]: > 60 mg/kg
"COC(=O)C1=C(C)NC(C)=C(C(=O)OC(C=Cc2ccccc2)c2ccccc2)C1c1cccc([N+](=O)[O-])c1 (stereo not shown) [Example 27, 1,3-diphenyl-2-propenyl methyl 4-(3-nitrophenyl)-2,6-dimethyl-1,4-dihydropyridine-3,5-dicarboxylate]",,170,82,> 240,56,45,> 240,-130,-113,,
"COC(=O)C1=C(C)NC(C)=C(C(=O)OCC=Cc2ccco2)C1c1cccc([N+](=O)[O-])c1 (stereo not shown) [Example 7, 3-(2furyl)-2-propenyl methyl 4-(3-nitrophenyl)-2,6-dimethyl-1,4-dihydropyridine-3,5-dicarboxylate]",> 60,105,20,> 120,,,,,,,
"CC1=C(C(=O)OCC=Cc2ccccc2)C(c2cccc([N+](=O)[O-])c2)C(C(=O)OCCOc2ccccc2)=C(C)N1 (stereo not shown) [Example 44, Cinnamyl 2-phenoxyethyl 4-(3-nitrophenyl)-2,6-dimethyl-1,4-dihydropyridine-3,5-dicarboxylate]",,,,,7,43,,-30,-70,7 to 24,halflife (number in parentheses in Duration column) [3]: 45 min
"COC(=O)C1=C(C)NC(C)=C(C(=O)OCC/C=C\c2ccc3ccccc3c2)C1c1cccc([N+](=O)[O-])c1 (stereo not drawn) [Example 57, Methyl (Z)-4-(2-naphthyl)-3-butenyl 4-(3-nitrophenyl)-2,6-dimethyl-1,4-dihydropyridine-3,5-dicarboxylate (cis)]",> 75,,,,2.6,26.8,,,,,Depressure Response MaxΔBP ([5]; 10 μg/kg i.v.): 12.0 mmHg; Depressure Response Peak ([5]; 10 μg/kg i.v.): 3.2 min; MaxΔHR (Heart rates) ([5]; 10 μg/kg i.v.): 23.3 beats/min; T 1/2 (Halflife) ([5]; 10 μg/kg i.v.): 14.0 min; Depressure Response MaxΔBP ([5]; 30 μg/kg i.v.): 26.8 mmHg; Depressure Response Peak ([5]; 30 μg/kg i.v.): 2.6 min; MaxΔHR (Heart rates) ([5]; 30 μg/kg i.v.): 62.5 beats/min; T 1/2 (Halflife) ([5]; 30 μg/kg i.v.): 15.0 min; Depressure Response MaxΔBP ([5]; 100 μg/kg i.v.): 68.5 mmHg; Depressure Response Peak ([5]; 100 μg/kg i.v.): 3.8 min; MaxΔHR (Heart rates) ([5]; 100 μg/kg i.v.): 120 beats/min; T 1/2 (Halflife) ([5]; 100 μg/kg i.v.): 25.0 min; ED40 [5]: 0.0408 mg/kg
